What all share (format): functional, cell-based
Test [1] concerns MCF7. Briefly: Inhibition of proliferative breast adenocarcinoma cell line MCF-7 after 48-h treatment. Particulars: Homo sapiens, MCF7, 48 h.
For test [2], the system named is A-427. Briefly: Inhibition of large cell lung carcinoma (A427) after 48-h treatment. Conditions: Homo sapiens, A-427, 48 h.
In test [3] the test system is A549. Briefly: Inhibition of non-small-cell lung adenocarcinoma (A549) after 48-h treatment. Particulars: Homo sapiens, A549, 48 h.
The subject of test [4] is MCF7. The experiment in a line: Inhibition of proliferation of breast adenocarcinoma cell line MCF-7. Conditions: Homo sapiens.
Test [5] relates to A-427. The experiment in a line: Inhibition of large cell lung carcinoma (A427). Conditions: Homo sapiens.
Test [6] deals with A549. The experiment in a line: Inhibition of non-small-cell lung adenocarcinoma (A549). Conditions: Homo sapiens.

IC50 data for three compounds are collected here from ChEMBL document CHEMBL1130005, “Enantioselective synthesis and antiproliferative properties of an ilmofosine analog, 2'-(trimethylammonio)ethyl 3-(hexadecyloxy)-2-(methoxymethyl)propyl phosphate, on epithelial cancer cell growth” (J Med Chem, 1997).

As usually defined, the IC50 is the midpoint of a concentration-inhibition curve. High values mean weaker potency in that assay, low ones greater potency in that assay. `CCCCCCCCCCCCCCCCOC[C@H](COC)COP(=O)([O-])OCC[N+](C)(C)C`: the IC50 in the test on MCF7 [1] was found to be 2 µM; in the test with A-427 [2], 20 µM; with A549 [3] it was 7.5 µM.

Turning to `CCCCCCCCCCCCCCCCOC[C@@H](COC)COP(=O)([O-])OCC[N+](C)(C)C`, the IC50 in the test on MCF7 [4] was 2 µM; with A-427 [5], above 20 µM; with A549 [6], 10 µM.

For the compound `CCCCCCCCCCCCCCCCSCC(COC)COP(=O)([O-])OCC[N+](C)(C)C` (racemic) [ILMOFOSINE], the IC50 turned out to be 2 µM in the test on MCF7 [4], 20 µM with A-427 [5] and 10 µM in the test with A549 [6].
